Experimental data from US20240325495A1, “FUSION PROTEINS FOR THE TREATMENT OF DISEASE” (Bristol-Myers Squibb Company, priority 2020, published 2024).

How the values were obtained:
[1] = target: IL-2Rβγ (as a pre-assembled heterodimer); assay: Binding affinity to rat IL-2Rβγ
rats and monkeys = assay: Toxicity studies in rats and monkeys: common PD and safety findings; type: in vivo; settings: GLP pivotal nonclinical studies
Text: (§1) The single- and repeat-dose toxicity of BMS-986326 were characterized in a series of studies in rats for up to 2 weeks and in monkeys up to 12 weeks using selected dosing frequencies. Pivotal good laboratory practice (GLP) repeat-dose studies in both species employed SC administration of BMS-986326 and consisted of two 2-week studies in rats using differing dose frequencies (once weekly [QW] vs twice weekly [2QW]), a 2-week once weekly dosing study in monkeys, and a 12-week (once every 3 week, Q3W) dosing study in monkeys. In addition, single-dose exploratory studies were initially completed in both rats and monkeys to explore the tolerability of BMS-986326, and a single-dose GLP IV toxicity and cardiovascular safety study was also completed in telemeterized monkeys using IV dosing to support IV administration in the first-in-human (FIH) single-ascending dose (SAD) study (IM034001).
Intended and unintended PD effects occurred in a dose-dependent manner across all doses of each toxicity study and were generally more pronounced in monkeys than in rats. As an IL-2R agonist, BMS-986326 induced maximal phosphorylation of STAT5 in Treg cells (72% to 95%) across all doses in rats and monkeys, increased Treg cells (up to 63× in monkeys) and/or CD25 expression on CD4 Tregs (up to 4.5× in rats), and raised serum levels of IL-10 (up to 2× in rats and 87× in monkeys). […]

[2] = Nonclinical pharmacokinetics in monkeys; type: in vivo
Description: (§2) Various in vitro and in vivo studies were conducted to characterize the PK of BMS-986326 in the nonclinical setting.

[3] = Nonclinical pharmacokinetics in mice; type: in vivo
Description: as §2

self-blocking homodimer = assay: Biochemical and biophysical characterization: homodimer dissociation; type: binding; settings: in vitro at 37° C.
[4] = Human PK/PD, exposure and efficacious dose projection; settings: projected peak
Description: Human PK was projected using allometric scaling of monkey PK parameters and was assumed to have similar SC bioavailability as in monkeys.
The first approach was based on maximal preclinical efficacy in mouse models dosed with mIL2-CD25.
The selection of the starting dose of 0.1 mg IV is based on the available preclinical PK, toxicology, and pharmacology data. PK/PD modeling and simulations were performed to generate predicted human PK and PD profiles from nonclinical data.

monkeys [5] = assay: Pivotal single-dose IV toxicity and cardiovascular safety study in monkeys; type: in vivo
Text: as §1
Microscopically, there were dose-dependent multisystemic infiltrates of eosinophils and mononuclear cells in some tissues.

monkeys [6] = assay: 12-week monkey toxicity study, SC Q3W
Description: In the 12-week monkey study, dose range and frequencies were reduced compared to the 2-week study with BMS-986326 administered at 0.0625, 0.125, or 0.25 mg/kg SC Q3W (Days 1, 22, 43, and 64).

self-blocking homodimer, sequence (as listed by the source): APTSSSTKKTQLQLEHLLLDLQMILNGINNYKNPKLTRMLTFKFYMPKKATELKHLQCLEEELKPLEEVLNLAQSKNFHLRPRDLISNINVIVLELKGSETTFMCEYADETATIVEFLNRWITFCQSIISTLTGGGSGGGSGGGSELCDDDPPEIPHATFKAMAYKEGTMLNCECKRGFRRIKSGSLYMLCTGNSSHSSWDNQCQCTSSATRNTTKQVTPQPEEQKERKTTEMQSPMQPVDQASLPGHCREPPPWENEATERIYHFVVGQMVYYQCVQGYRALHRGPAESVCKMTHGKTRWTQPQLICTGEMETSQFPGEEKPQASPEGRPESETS

Substance: BMS-986326: recombinant fusion protein of human IL2 and extracellular domain of human CD25, (GGGS)3 linker, non-covalent self-blocking homodimer
- Kd [1]: > 4 µM
- capillary leak syndrome (CLS) (rats and monkeys): has not been observed
- total serum clearance (CLTs) [2]: 0.769 mL/h/kg
- steady-state volume of distribution (Vss) ([2]; IV): 0.0734 L/kg
- absolute bioavailability ([2]; SC dosing): 46%
- apparent elimination half-life (T-HALF) ([2]; SC dosing): 79.2 h
- time of maximum concentration (Tmax) ([2]; SC dosing): 24 h
- total serum clearance (CLTs) [3]: 3.25 mL/h/kg
- steady-state volume of distribution (Vss) ([3]; IV): 0.0954 L/kg
- absolute bioavailability ([3]; SC dosing): 58%
- apparent elimination half-life (T-HALF) ([3]; SC dosing): 28.3 h
- time of maximum concentration (Tmax) ([3]; SC dosing): 7 h
- dissociation half-life of self-blocking homodimer (self-blocking homodimer): approximately 3 days
- Fold-change CD8+ ([4]; 0.1 mg IV): <2 fold
- Fold-change Tregs ([4]; 0.1 mg IV): <2 fold
- Fold-change CD8+ ([4]; 0.3 mg IV): <2 fold
- Fold-change Tregs ([4]; 0.3 mg IV): <2 fold
- Fold-change CD8+ ([4]; 1 mg IV): <2 fold
- Fold-change Tregs ([4]; 1 mg IV): 2-4 fold
- Fold-change CD8+ ([4]; 1 mg SC): <2 fold
- Fold-change Tregs ([4]; 1 mg SC): 2-3 fold
- Fold-change CD8+ ([4]; 3 mg IV): <2 fold
- Fold-change Tregs ([4]; 3 mg IV): 4-8 fold
- Fold-change CD8+ ([4]; 3 mg SC): <2 fold
- Fold-change Tregs ([4]; 3 mg SC): 3-5 fold
- Fold-change CD8+ ([4]; 6 mg IV): ~2 fold
- Fold-change Tregs ([4]; 6 mg IV): 7-15 fold
- Fold-change CD8+ ([4]; 6 mg SC): <2 fold
- Fold-change Tregs ([4]; 6 mg SC): 4-8 fold
- Fold-change CD8+ ([4]; 8 mg SC): ~2 fold
- Fold-change Tregs ([4]; 8 mg SC): 5-10 fold
- Fold-change CD8+ ([4]; 9 mg IV (optional Cohort A6)): ~2 fold
- Fold-change Tregs ([4]; 9 mg IV (optional Cohort A6)): 10-20 fold
- blood pressure, CLS-like effects, hemodynamic and electrocardiographic parameters (monkeys [5]; monkey, in vivo, iv): no decreases in blood pressure, CLS-like effects, or other effects on hemodynamic or electrocardiographic parameters
- increase in eosinophils (monkeys [5]; monkey, in vivo, iv): up to 91.6 ×
- mean AUC [0-336 h] across all doses (monkeys [5]; monkey, in vivo, iv): ≤ 757 µg·h/mL
- increased heart rate relative to baseline (monkeys [5]; monkey, in vivo, iv, 0.5 mg/kg): 4%
- transient increase in mean body temperature (monkeys [5]; monkey, in vivo, iv, 0.5 mg/kg): up to 1.1 °C
- clinical tolerability (monkeys [5]; monkeys, single IV 0.05, 0.15 or 0.5 mg/kg): clinically well tolerated at all doses
- no-observed-adverse-effect level (NOAEL) (monkeys [5]; monkeys, single IV dose): 0.5 mg/kg
- NOAEL AUC[0-336 hours] (monkeys [5]; single-dose monkey toxicology study): ≤ 757 μ·h/ml
- NOAEL AUC[0-504 hours] (monkeys [6]; 12-week (once every 3 weeks) SC monkey toxicology study): ≤ 306 μ·h/ml
- magnitude of increase in Tregs relative to increase in conventional T cells (monkeys [6]; 12-week monkey study, Q3W, across the dose range): ≤ 2 times
- eosinophilic or mononuclear cell infiltration into other tissues (monkeys [6]; monkey, in vivo, sc): no eosinophilic or mononuclear cell infiltration into other tissues
- NOAEL (monkeys [6]; monkeys, 12-week SC Q3W): 0.25 mg/kg/dose
- mean AUC at NOAEL (monkeys [6]; monkeys, […] Q3W): 306 µg·h/mL
